According to US11840551B2, “Compositions and methods of modulating the immune response by activating alpha protein kinase 1” (Shanghai Yao Yuan Biotechnology Co., Ltd., priority 2017, dated 2023):

Assays:
[1] = test system: eosinophils, dendritic cells, neutrophils; experiment: Porcine pancreas elastase (PPE) model, immune cells in bronchoalveolar lavage (flow cytometry); assay type: in vivo, C57BL/6 mice; conditions: 4 nmol/dose and 20 nmol/dose intraperitoneal on days -1, 0, 1; BAL on day 2
Method: Eight-week-old male C57BL/6 mice were grouped (N=8/group) and were intraperitoneally (I.P.) injected with compound 28 at 0, 4, or 20 nmol/dose on days −1, 0, and 1. In addition, mice were intratracheally (I.Tr.) administrated with 0 or 30 μg/dose of porcine pancreas elastase (PPE) dissolved in 50 μL saline on day 0. Mice were sacrificed on day 2 and the immune cells were collected by bronchoalveolar lavage (BAL). Cells were then subjected to fluorophore-conjugated antibody staining and analyzed by flow cytometry. Data were processed with a FlowJo […] (Treestar) Immune cells were gated as singlets >live cells>CD11c^highSiglecF^lowMHCII^high (dendritic cells), CD11c^lowCD11b^highLy-6G^high (neutrophils), and CD11c^lowCD11b^highLy-6G^lowSiglecF^high (eosinophils).

HBsAg, adw = experiment: Immunization with HBsAg, adw, specific total IgG serum titers (ELISA); assay type: in vivo, C57BL/6J mice; conditions: intradermal, adw combined with 1 nmol/dose compound 28, days 0 and 14, sera at day 35
Method: Eight-week-old C57BL/6J mice (females) were intradermally (I.D.) immunized at day 0 with HBsAg, adw (1 mg/dose), or HBsAg, adw at 1 mg/dose combined with compound 28 (1 nmol/dose). Mice were boosted with a second immunization at day 14 and the sera collected at day 35. HBsAg, adw-specific total IgG serum titers (OD450) were determined by ELISA. Anti-HBsAg, adw IgG titers were more than 2× higher when HBsAg, adw was combined with 1 nmol/dose of compound 28 than when HBsAg, adw was injected alone (FIG. 35).

HBV = experiment: HBV-AAV mouse model; assay type: in vivo, C57BL/6 mice
Method: Administration of Compound 28 (0.1 mg/kg, twice weekly “BIW”) led to downregulation of HBV DNA expression and a decrease in serum levels of HBsAg, and HBeAg in the HBV-AAV mouse model. At day 1, male C57BL/6 mice were intravenously injected with AAV8-1.3HBV (1×10^11 v/g). After days 28 and 31, each mouse was then intraperitoneally injected with 0.1 mg/kg compound 28 or PBS control. At day 35, mouse serum was collected for HBV DNA qPCR analysis, HBsAg and HBeAg serum analysis by ELISA.

ALPK1 = biological target: T1, ALPK1 (Mus musculus, UniProt Q9CXB8); experiment: Serum RANTES levels as marker of ALPK1 activation in vivo; design: species or system C57/B6 mice; conditions: 10 nmole subcutaneous, serum at 24 hours or 48 hours, compared to Compound 15
T1 construct: C57/B6 mice (n=3 mice/group) were injected subcutaneously; from tissue; host or cells: whole animal, C57/B6 mice
T1 sequence (Q9CXB8 1-1231): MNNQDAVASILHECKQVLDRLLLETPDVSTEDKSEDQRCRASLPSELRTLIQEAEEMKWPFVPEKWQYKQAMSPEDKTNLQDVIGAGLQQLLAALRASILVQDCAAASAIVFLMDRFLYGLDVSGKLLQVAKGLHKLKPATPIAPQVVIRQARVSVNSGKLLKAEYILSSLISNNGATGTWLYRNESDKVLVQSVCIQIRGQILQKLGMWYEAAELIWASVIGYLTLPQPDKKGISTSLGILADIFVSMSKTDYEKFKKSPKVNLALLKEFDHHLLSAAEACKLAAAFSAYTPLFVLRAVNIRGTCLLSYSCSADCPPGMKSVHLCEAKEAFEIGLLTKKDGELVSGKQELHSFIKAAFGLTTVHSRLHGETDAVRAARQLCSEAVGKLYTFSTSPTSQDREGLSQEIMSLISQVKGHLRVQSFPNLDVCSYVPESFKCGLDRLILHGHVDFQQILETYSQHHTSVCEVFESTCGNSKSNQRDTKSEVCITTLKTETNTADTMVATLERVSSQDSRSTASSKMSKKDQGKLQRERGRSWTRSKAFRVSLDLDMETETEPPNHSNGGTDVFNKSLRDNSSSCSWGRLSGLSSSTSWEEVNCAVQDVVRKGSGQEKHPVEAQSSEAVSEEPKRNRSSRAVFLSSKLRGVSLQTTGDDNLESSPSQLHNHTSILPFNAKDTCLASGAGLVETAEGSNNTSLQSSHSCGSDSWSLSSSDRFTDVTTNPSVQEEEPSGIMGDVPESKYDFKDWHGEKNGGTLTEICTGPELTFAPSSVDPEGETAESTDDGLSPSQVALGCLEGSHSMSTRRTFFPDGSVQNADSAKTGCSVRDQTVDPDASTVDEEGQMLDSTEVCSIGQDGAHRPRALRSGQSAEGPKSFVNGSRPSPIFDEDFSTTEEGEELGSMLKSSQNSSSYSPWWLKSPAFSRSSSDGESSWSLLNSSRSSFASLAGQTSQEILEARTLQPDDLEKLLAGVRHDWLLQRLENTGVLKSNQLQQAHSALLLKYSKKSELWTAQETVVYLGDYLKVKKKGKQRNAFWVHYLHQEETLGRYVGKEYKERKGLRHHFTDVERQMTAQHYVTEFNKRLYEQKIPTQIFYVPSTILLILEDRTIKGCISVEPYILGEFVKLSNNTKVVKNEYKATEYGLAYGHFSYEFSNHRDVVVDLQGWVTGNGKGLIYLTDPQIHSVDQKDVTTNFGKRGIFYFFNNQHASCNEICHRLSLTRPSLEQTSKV
Method: The ability of Compounds 15 and 28 to stimulate ALPK1 activation in vivo was tested by monitoring serum levels of the chemokine RANTES (CCLS), which is elevated upon activation of ALPK1. Briefly, C57/B6 mice (n=3 mice/group) were injected subcutaneously with PBS (negative control) or 10 nmole of Compound 15 or Compound 28. Serum was collected at 24 hours or 48 hours post injection.

[2] = 0.1 mg/kg intraperitoneal at days 28 and 31, serum at day 35, ELISA

CC(=O)OC[C@H](F)[C@H]1O[C@@H](OP(=O)(O)OP(O)(=S)OC[C@H]2O[C@@H](n3cnc4c(N)ncnc43)[C@H](O)[C@@H]2O)[C@@H](OC(C)=O)[C@@H](OC(C)=O)[C@@H]1OC(C)=O (stereo partly drawn) [Compound 28, (2S,3S,4S,5S,6S)-2-((S)-2-acetoxy-1-fluoroethyl)-6-(((((((2R,3S,4R,5R)-5-(6-amino-9H-purin-9-yl)-3,4-dihydroxytetrahydrofuran-2-yl)methoxy)(hydroxy)phosphorothioyl)oxy)(hydroxy)phosphoryl)oxy)tetrahydro-2H-pyran-3,4,5-triyl triacetate]
increase in the production of dendritic cells after PPE administration [1]: significantly suppressed
increase in the production of eosinophils after PPE administration [1]: significantly suppressed
increased production of neutrophils after PPE administration [1]: also suppressed but only at the 20 nmol/dose level
Anti-HBsAg, adw IgG titers relative to HBsAg, adw injected alone (HBsAg, adw): more than 2 ×
serum levels of HBeAg (HBV; [2]): marked decrease
serum levels of HBsAg (HBV; [2]): marked decrease
HBV DNA expression (HBV; 0.1 mg/kg intraperitoneal at days 28 and 31, serum at day 35, qPCR): marked decrease
duration of immune activation (serum RANTES) (ALPK1): showed a longer duration of immune activation
